Source: US8933071B2, “Dimethyl fasudil for inducing polyploidization of megakaryocytes and for treating blood and bone marrow diseases and disorders” (Northwestern University, priority 2008, dated 2015)

Experiments:
[1] = tested on: non-megakaryocytic cells (CD41-negative); experiment: Effect on non-megakaryocytic (CD41-negative) cells in human CD34+ culture; format: cell-based; details: CD41-negative population
Experimental: FIG. 4 illustrates that DMF induces polyploidization of normal human megakaryocytes and that its activity is restricted to the CD41+ population. Human CD34+ cells were cultured with TPO for 12 days and then fixed and stained with DAPI. DMSO or DMF were added to the culture after 9 days. DNA content was then assessed by flow cytometry. Numbers above the bar indicate % of cells ≧8N.
In collaboration with the Broad Institute, a high throughput screen for small molecules was conducted to identify small molecules that preferentially induce polyploidization or differentiation of megakaryocytes. We screened 10,000 compounds from the Broad's extensive collection of small molecules (including known bioactives, kinase and HDAC inhibitors, and natural products) to identify inducers of megakaryocyte polyploidization. The screen was performed in the following manner: 1) 4,000 CMK (human megakaryocytic leukemia) cells were plated into each well of a 384-well plate, 2) 100 n1 of compounds (yielding a final concentration of 10 μM) were pinned into the wells, 3) plates were incubated at 37° C. for 72 hours, 4) cells were fixed and stained with Hoescht, and 5) plates were imaged using an ImageXpressMICRO high content imager with 20× objective. Nine images per well were collected. 6) Data were analyzed using both MetaXpress software and “Cell Profiler,” software designed at MIT and the Broad Institute. […]

[2] = tested on: megakaryocyte colonies (CFU-MK) from MPD bone marrow; experiment: CFU-MK assay, bone marrow mononuclear cells from a patient with ET; format: cell-based, human; details: two doses, 10 days
Experimental: FIG. 5 illustrates that the Rho kinase inhibitor dimethylfasudil (DMF) (also know as “ROCK inhibitor”) blocks formation of megakaryocyte colonies (CFU-MK) by bone marrow from patients with Myeloproliferative Disease (MPD).
(§1) Data with Patient Samples. Two lead compounds were tested on samples from both MPD (myeloproliferative disease) patients and AMKL (acute megakaryocytic leukemia) patients. […] Referring to FIG. 5, bone marrow mononuclear cells from a patient with ET were cultured with two doses of DMF for 10 days. […] Referring to FIG. 8, bone marrow samples from patients with AMKL were cultured in DMSO (control) or DMF (at 5 μM) for 14 days. Colonies were stained with anti-CD41 antibody and visualized by microcopy (not shown). Total numbers of CD41+ megakaryocyte colonies are shown.
MPDs Patient Specimens. Mononuclear cells from bone marrow of patients were obtained by informed consent from patients at Northwestern Feinberg School of Medicine. […] The cells were stained with 0.4% trypan blue solution for 5 minutes and live cells were counted. […]
(§2) CFU-MK (Colony forming units-megakarvocvtes) assay. […] Slides were scored microscopically, and megakaryocyte colonies were defined as colonies with at least three megakaryocytes.

[3] = tested on: human AMKL leukemic cells; experiment: CFU-MK assay, bone marrow samples from patients with AMKL; format: cell-based; details: 5 μM, 14 days, AMKL patient bone marrow
Experimental: FIG. 8 illustrates that DMF blocks the growth of human AMKL leukemic cells. Mononuclear cells from patients with AMKL were cultured in methylcellulose in the presence of either DMSO or 5 μM of DMF.
as §1
AMKL Patient Specimens. Frozen bone marrow mononuclear cells of acute megakaryocytic leukemia (AMKL) were obtained from human patients with help from the Children's Oncology Group (COG). After thawing, cells were resuspended in IMDM media without serum. The cells were stained with 0.4% trypan blue solution for 5 minutes and live cells were counted. Live cells were assayed for leukemic potential in a CFU-MK assay (details below).
as §2

dimethylfasudil [DMF]
effect on non-megakaryocytic (CD41-negative) cells [1]: no effect | formation of aberrant megakaryocyte colonies (CFU-MK) [2]: potently blocked formation | growth of human leukemia cells (CD41+ megakaryocyte colonies) [3]: potently blocked growth
